Key:
Assay in all cases: relative viability (nuclei count vs DMSO), 5 days (fraction); higher = more cells survive
NCI-H1650 = test system: NCI-H1650
Procedure, shortened: (§1)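 Lung cancer cell lines were pin-tool dosed in 1536-well plates on the day after seeding, with either a lone drug or a fixed anchor-drug dose plus five library-drug doses (not always all listed) in √10 steps. Nuclei were counted on 4× images after 5 days. Relative viability is the ratio of treated-well to vehicle-well nuclei counts, with each value a median of duplicate plates.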

HCC-15 = test system: HCC-15
Procedure, shortened: as §1

COR-L23 = test system: COR-L23
Procedure, shortened: as §1

NCI-H838 = test system: NCI-H838
Procedure, shortened: as §1

SW 900 = test system: SW 900
Procedure, shortened: as §1

201T = test system: 201T
Procedure, shortened: as §1

HCC-44 = test system: HCC-44
Procedure, shortened: as §1

NCI-H358 = test system: NCI-H358
Procedure, shortened: as §1

HCC-827 = test system: HCC-827
Procedure, shortened: as §1

NCI-H1975 = test system: NCI-H1975
Procedure, shortened: as §1

NCI-H1437 = test system: NCI-H1437
Procedure, shortened: as §1

## CC(=O)O[C@@]12CO[C@@H]1C[C@H](O)[C@@]1(C)C(=O)[C@H](O)C3=C(C)[C@@H](OC(=O)[C@H](O)[C@@H](NC(=O)OC(C)(C)C)c4ccccc4)C[C@@](O)([C@@H](OC(=O)c4ccccc4)[C@H]21)C3(C)C [Docetaxel] + Cc1cc(Nc2cc(N3CCN(C)CC3)nc(Sc3ccc(NC(=O)C4CC4)cc3)n2)n[nH]1 [Tozasertib] (partner 0.1 µM)
NCI-H1650; first compound 0.0002 µM
  relative viability: 0.386
NCI-H1650; first compound 0.000632 µM
  relative viability: 0.328
NCI-H1650; first compound 0.006325 µM
  relative viability: 0.306
NCI-H1650; first compound 0.02 µM
  relative viability: 0.168
HCC-15; first compound 0.0002 µM
  relative viability: 0.391
HCC-15; first compound 0.000632 µM
  relative viability: 0.266
HCC-15; first compound 0.002 µM
  relative viability: 0.174
HCC-15; first compound 0.006325 µM
  relative viability: 0.239
HCC-15; first compound 0.02 µM
  relative viability: 0.135
COR-L23; first compound 0.0002 µM
  relative viability: 0.199
COR-L23; first compound 0.000632 µM
  relative viability: 0.21
COR-L23; first compound 0.002 µM
  relative viability: 0.141
COR-L23; first compound 0.006325 µM
  relative viability: 0.153
COR-L23; first compound 0.02 µM
  relative viability: 0.133
NCI-H838; first compound 0.0002 µM
  relative viability: 0.236
NCI-H838; first compound 0.000632 µM
  relative viability: 0.27
NCI-H838; first compound 0.002 µM
  relative viability: 0.258
NCI-H838; first compound 0.006325 µM
  relative viability: 0.28
NCI-H838; first compound 0.02 µM
  relative viability: 0.193
SW 900; first compound 0.0002 µM
  relative viability: 0.453
SW 900; first compound 0.000632 µM
  relative viability: 0.296
SW 900; first compound 0.002 µM
  relative viability: 0.259
SW 900; first compound 0.006325 µM
  relative viability: 0.277
SW 900; first compound 0.02 µM
  relative viability: 0.173
201T; first compound 0.0002 µM
  relative viability: 0.937
201T; first compound 0.000632 µM
  relative viability: 0.751
201T; first compound 0.002 µM
  relative viability: 0.581
201T; first compound 0.006325 µM
  relative viability: 0.453
201T; first compound 0.02 µM
  relative viability: 0.325
HCC-44; first compound 0.0002 µM
  relative viability: 0.93
HCC-44; first compound 0.000632 µM
  relative viability: 0.442
HCC-44; first compound 0.002 µM
  relative viability: 0.41
HCC-44; first compound 0.006325 µM
  relative viability: 0.295
HCC-44; first compound 0.02 µM
  relative viability: 0.158
NCI-H358; first compound 0.0002 µM
  relative viability: 0.114
NCI-H358; first compound 0.000632 µM
  relative viability: 0.112
NCI-H358; first compound 0.006325 µM
  relative viability: 0.137
NCI-H358; first compound 0.02 µM
  relative viability: 0.117
HCC-827; first compound 0.0002 µM
  relative viability: 0.406
HCC-827; first compound 0.000632 µM
  relative viability: 0.412
HCC-827; first compound 0.002 µM
  relative viability: 0.328
HCC-827; first compound 0.006325 µM
  relative viability: 0.332
HCC-827; first compound 0.02 µM
  relative viability: 0.295
NCI-H1975; first compound 0.0002 µM
  relative viability: 0.705
NCI-H1975; first compound 0.000632 µM
  relative viability: 0.367
NCI-H1975; first compound 0.002 µM
  relative viability: 0.158
NCI-H1975; first compound 0.006325 µM
  relative viability: 0.133
NCI-H1975; first compound 0.02 µM
  relative viability: 0.0956
NCI-H1437; first compound 0.0002 µM
  relative viability: 0.354
NCI-H1437; first compound 0.000632 µM
  relative viability: 0.374
NCI-H1437; first compound 0.002 µM
  relative viability: 0.241

— the supplement of paper PMC10307832
